Assay results as given in EP0535528A1, “Antibacterial 5-Nitro-1-methyl-imidazolyl-3-terbutyl-2-hydroxy-aryl-carbinols” (EURORESEARCH S.r.L., priority 1991, dated 1993).
Values after ≈ are worked out from the molar mass of the structure shown.

Assays:
Swiss female albino mice = experiment: Oral and intraperitoneal acute toxicity in mice (LD50, Probits method); type: in vivo; conditions: mice
Procedure: 20 Swiss female albino mice are used for this test of the average weight of 20 g (±2), coming from Nossan breeding .
Cages: in Makrolon® with saw dust litter, Number of animals per cage: 5 Acclimation period: 1 week Temperature: 22°C (± 2°C) Humidity : 60%, Diet: pellets for mice produced by Nossan firm, Water ad libitum Fast before the treatment: 16 hours
Oral by gastric route and intraperitoneal.
The substances to be studied: EU11100, EU11102, EU11103, EU11104 are treated with 0.5% carboxymethylcellulose in spring water, for the oral administration, whereas the same substances are intraperitoneally administered in the form of a physiological solution .
For each of the above mentioned substances, a mother suspension is prepared having a concentration in the active ingredient of 250 mg/ml for the oral administration, and analogously a mother suspension is prepared for the intraperitoneal administration having a concentration of the desired active principle of 100 mg/ml.
The following doses are used • a) oral route: 5000 mg/kg • b) intraperitoneal route : 2000 mg/kg
If mortality is observed at the above mentioned doses, other doses are administered in order to obtain a dose-response curve.
5 animals are used for every utilized concentration.
After the administration of the above substances the animals are kept under observation for 14 days , during which the mortality and the behaviour is observed.
LD₅₀ is determined on the base of the cumulative mortality observed in the successive 14 days after the administration by using the Probits method.

Helicobapter pylori [1] = experiment: Inhibition halos of the bacterial growth (impregnated disks on agar); type: cell-based; conditions: for activity against the Helicobapter pylori strains used: 10 strains; for Inhibition halo (mm), Average: average of 10 strains
Procedure: Comparison substance: Metronidazole Solubilization of the substances : All the substances to be studied are dissolved at room temperature in DMSO.
Some commercially available antibiogram disks are so impregnated with the above mentioned compounds that each disk has concentration equal to 10, 1, 0.1, 0.01 µg.
10 strains of Helicobapter pylori are used of recent clinical isolation.
Columbia Blood Agar Base is used, containing 5% of defibrinated horse blood, 2 % of calf serum, 2 vials of Vitox per liter of medium and Vancomicine (10 µg/ml) Trimetoprim lactate(5 µg/ml) and Polimixin B (2.5 U/ml).
0.1 ml of a suspension of the different used strains are uniformly distributed onto Petri plates, containing 20 ml of Columbia Blood Agar base, obtained by taking a sample, by means of a platinum loop, of different colonies from a 48 hours culture, grown in anaerobiosis jars with "Gas Pack", without a catalyst and diluted into a physiological solution.
4 disks per plate, previously impregnated with the substances under examination, are then placed onto the agar layer of each plate.
After 48 hours of anaerobiosis incubation, as above described, the inhibition halos of the bacterial growth, produced by the different activity of the substances inside the agar, are evaluated.

Helicobapter pylori [2] = experiment: Minimal inhibiting concentration (agar dilution); type: cell-based
Procedure: Substances under examination: EU11100, EU11102, EU11103, EU11104. Comparison substance: Metronidazole Solubilization of the substances: All the substances to be studied are dissolved at room temperature in DMSO. […] 10 strains of Helicobapter pylori are used of recent clinical isolation […] The sowing of the bacteria, prepared as described in the preceding test is carried out by means a "multi-point inoculator". After 48 hours incubation under the condition described in the preceding test, the plates are examined and the Minimal Inhibiting Concentration is evaluated, namely that dose corresponding to growth absence.

## Cc1cc(C(O)c2ncc([N+](=O)[O-])n2C)c(O)c(C(C)(C)C)c1 (stereo not shown) [EU11103, 5-nitro-1-methyl-imidazolyl-3-terbutyl-2-hydroxy-5 methyl-phenyl-carbinol]
Swiss female albino mice; intraperitoneal, 2000 mg/kg
  toxicity when intraperitoneally administered: not toxic
Swiss female albino mice; oral, 5000 mg/kg
  toxicity when orally administered: not toxic
Helicobapter pylori [1]; 0.1 µg/disk
  activity against the Helicobapter pylori strains used: active against 4 out of 10 strains
Helicobapter pylori [1]; 1 µg/disk
  activity against the Helicobapter pylori strains used: active against all the Helicobapter pylori used
  Inhibition halo (mm), Average: 26.7 mm
Helicobapter pylori [1]; disk test
  activity against the Helicobapter pylori strains used: active against all the Helicobapter pylori strains used
Helicobapter pylori [1]; 10 µg/disk
  Inhibition halo (mm), Average: 36.6 mm
Helicobapter pylori [1]; strain 1, 0.01 µg/disk
  Inhibition halo (mm) at the concentration (µg/disk): 0 mm
Helicobapter pylori [1]; strain 1, 1 µg/disk
  Inhibition halo (mm) at the concentration (µg/disk): 30 mm
Helicobapter pylori [1]; strain 1, 10 µg/disk
  Inhibition halo (mm) at the concentration (µg/disk): 40 mm
Helicobapter pylori [1]; strain 2, 0.01 µg/disk
  Inhibition halo (mm) at the concentration (µg/disk): 0 mm
Helicobapter pylori [1]; strain 2, 0.1 µg/disk
  Inhibition halo (mm) at the concentration (µg/disk): 0 mm
Helicobapter pylori [1]; strain 3, 0.01 µg/disk
  Inhibition halo (mm) at the concentration (µg/disk): 0 mm
Helicobapter pylori [1]; strain 3, 0.1 µg/disk
  Inhibition halo (mm) at the concentration (µg/disk): 0 mm
Helicobapter pylori [1]; strain 3, 1 µg/disk
  Inhibition halo (mm) at the concentration (µg/disk): 24 mm
Helicobapter pylori [1]; strain 3, 10 µg/disk
  Inhibition halo (mm) at the concentration (µg/disk): 35 mm
Helicobapter pylori [1]; strain 4, 0.01 µg/disk
  Inhibition halo (mm) at the concentration (µg/disk): 0 mm
Helicobapter pylori [1]; strain 4, 0.1 µg/disk
  Inhibition halo (mm) at the concentration (µg/disk): 20 mm
Helicobapter pylori [1]; strain 4, 10 µg/disk
  Inhibition halo (mm) at the concentration (µg/disk): 44 mm
Helicobapter pylori [1]; strain 5, 0.01 µg/disk
  Inhibition halo (mm) at the concentration (µg/disk): 0 mm
Helicobapter pylori [1]; strain 5, 0.1 µg/disk
  Inhibition halo (mm) at the concentration (µg/disk): 0 mm
Helicobapter pylori [1]; strain 5, 1 µg/disk
  Inhibition halo (mm) at the concentration (µg/disk): 17 mm
Helicobapter pylori [1]; strain 5, 10 µg/disk
  Inhibition halo (mm) at the concentration (µg/disk): 22 mm
Helicobapter pylori [1]; strain 6, 0.01 µg/disk
  Inhibition halo (mm) at the concentration (µg/disk): 0 mm
Helicobapter pylori [1]; strain 6, 1 µg/disk
  Inhibition halo (mm) at the concentration (µg/disk): 32 mm
Helicobapter pylori [1]; strain 6, 10 µg/disk
  Inhibition halo (mm) at the concentration (µg/disk): 43 mm
Helicobapter pylori [1]; strain 7, 0.01 µg/disk
  Inhibition halo (mm) at the concentration (µg/disk): 0 mm
Helicobapter pylori [1]; strain 7, 0.1 µg/disk
  Inhibition halo (mm) at the concentration (µg/disk): 0 mm
Helicobapter pylori [1]; strain 7, 1 µg/disk
  Inhibition halo (mm) at the concentration (µg/disk): 20 mm
Helicobapter pylori [1]; strain 7, 10 µg/disk
  Inhibition halo (mm) at the concentration (µg/disk): 28 mm
Helicobapter pylori [1]; strain 8, 0.01 µg/disk
  Inhibition halo (mm) at the concentration (µg/disk): 0 mm
Helicobapter pylori [1]; strain 8, 0.1 µg/disk
  Inhibition halo (mm) at the concentration (µg/disk): 21 mm
Helicobapter pylori [1]; strain 8, 1 µg/disk
  Inhibition halo (mm) at the concentration (µg/disk): 37 mm
Helicobapter pylori [1]; strain 8, 10 µg/disk
  Inhibition halo (mm) at the concentration (µg/disk): 45 mm
Helicobapter pylori [1]; strain 9, 0.01 µg/disk
  Inhibition halo (mm) at the concentration (µg/disk): 0 mm
Helicobapter pylori [1]; strain 9, 0.1 µg/disk
  Inhibition halo (mm) at the concentration (µg/disk): 0 mm
Helicobapter pylori [1]; strain 9, 1 µg/disk
  Inhibition halo (mm) at the concentration (µg/disk): 22 mm
Helicobapter pylori [1]; strain 9, 10 µg/disk
  Inhibition halo (mm) at the concentration (µg/disk): 33 mm
Helicobapter pylori [1]; strain 10, 0.01 µg/disk
  Inhibition halo (mm) at the concentration (µg/disk): 0 mm
Helicobapter pylori [1]; strain 10, 0.1 µg/disk
  Inhibition halo (mm) at the concentration (µg/disk): 0 mm
Helicobapter pylori [1]; strain 10, 1 µg/disk
  Inhibition halo (mm) at the concentration (µg/disk): 24 mm
Helicobapter pylori [2]; 10 strains
  MIC50: 0.03 µg/mL (≈ 0.0939 µM)
  MIC90: 0.06 µg/mL (≈ 0.188 µM)
  MIC range: 0.015 to 0.016 µg/mL
Helicobapter pylori [2]; in words, compared with Metronidazole
  MIC values: very low MIC values
Helicobapter pylori [2]; strain 1
  MIC: 0.06 µg/mL (≈ 0.188 µM)
Helicobapter pylori [2]; strain 2
  MIC: 0.06 µg/mL (≈ 0.188 µM)
Helicobapter pylori [2]; strain 3
  MIC: 0.03 µg/mL (≈ 0.0939 µM)
Helicobapter pylori [2]; strain 4
  MIC: 0.03 µg/mL (≈ 0.0939 µM)
Helicobapter pylori [2]; strain 5
  MIC: 0.03 µg/mL (≈ 0.0939 µM)
Helicobapter pylori [2]; strain 6
  MIC: 0.03 µg/mL (≈ 0.0939 µM)
Helicobapter pylori [2]; strain 7
  MIC: 0.06 µg/mL (≈ 0.188 µM)
Helicobapter pylori [2]; strain 8
  MIC: 0.06 µg/mL (≈ 0.188 µM)
Helicobapter pylori [2]; strain 9
  MIC: 0.03 µg/mL (≈ 0.0939 µM)
Helicobapter pylori [2]; strain 10
  MIC: 0.015 µg/mL (≈ 0.047 µM)
